Measurements taken from patent publication US20220062240A1, “METHODS OF TREATING CANCER USING A CLK INHIBITOR” (BioSplice Therapeutics, Inc., priority 2018, published 2022).
Like-named read-outs stand apart in the source and are kept apart here.

What was measured:
[1] = tested on: prostate cancer (5 cell lines); experiment: CellTiter-Glo Viability Assay, prostate cancer; type: cell-based; conditions: Homo sapiens
[2] = tested on: liver cancer (3 cell lines); experiment: CellTiter-Glo Viability Assay, liver cancer; type: cell-based; conditions: Homo sapiens, inhibition of cancer cell proliferation
[3] = tested on: haematopoietic & lymphoid tumors (13 cell lines); experiment: CellTiter-Glo Viability Assay, haematopoietic & lymphoid tumors; type: cell-based; conditions: Homo sapiens, inhibition of cancer cell proliferation
[4] = tested on: ovarian cancer (4 cell lines); experiment: CellTiter-Glo Viability Assay, ovarian cancer; type: cell-based; conditions: Homo sapiens, inhibition of cancer cell proliferation
ZR-75-1 = experiment: CellTiter-Glo Viability Assay, breast cancer; type: cell-based; conditions: Homo sapiens, 96 h; ZR-75-1, breast cancer, four days; read-out: EC50
BT-549 = experiment: CellTiter-Glo Viability Assay, breast cancer; type: cell-based; conditions: Homo sapiens, 96 h; BT-549, breast cancer, four days; read-out: EC50
T47D = experiment: CellTiter-Glo Viability Assay, breast cancer; type: cell-based; conditions: Homo sapiens, 96 h, breast cancer, four days, read-out: EC50
MCF7 = experiment: CellTiter-Glo Viability Assay, breast cancer; type: cell-based; conditions: Homo sapiens, 96 h; MCF7, breast cancer, four days; read-out: EC50
MDA-MB-231-Luc = experiment: CellTiter-Glo Viability Assay, breast cancer; type: cell-based; conditions: Homo sapiens, 96 h; MDA-MB-231-Luc, breast cancer, four days; read-out: EC50
CAMA1 = experiment: CellTiter-Glo Viability Assay, breast cancer; type: cell-based; conditions: Homo sapiens, CAMA-1, 96 h; CAMA1, breast cancer, four days; read-out: EC50
DU4475 = experiment: CellTiter-Glo Viability Assay, breast cancer; type: cell-based; conditions: Homo sapiens, DU-4475, 96 h; DU4475, breast cancer, four days; read-out: EC50
HCC1599 = experiment: CellTiter-Glo Viability Assay, breast cancer; type: cell-based; conditions: Homo sapiens, 96 h; HCC1599, breast cancer, four days; read-out: EC50
all 50 cell lines = experiment: CellTiter-Glo Viability Assay, average across all cell lines; type: cell-based; conditions: Homo sapiens; across all 50 cell lines; read-out: average EC50 for inhibition of cancer cell proliferation
Method in brief: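 Luminescent ATP read-out (CellTiter-Glo) after a 4-day compound exposure at 37° C served as the viability measure. Cells were seeded at 300-3,000/well, compound wells run in duplicate against DMSO controls, and EC50 values came from fitted dose-response curves.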

[5] = tested on: lung cancer (4 cell lines); experiment: CellTiter-Glo Viability Assay, lung cancer; type: cell-based; conditions: Homo sapiens, inhibition of cancer cell proliferation
[6] = tested on: colorectal cancer (6 cell lines); experiment: CellTiter-Glo Viability Assay, colorectal cancer; type: cell-based; conditions: Homo sapiens, inhibition of cancer cell proliferation
CLK2 = molecular target: T1, CLK2 (Homo sapiens, UniProt P49760); experiment: CLK2 kinase activity assay (Z-lyte, Ser/Thr 6 peptide); type: biochemical; conditions: recombinant CLK2 kinase, ATP 60 μM; read-out: EC50
T1 construct: purchased Thermo Fisher (Life Technologies), Z'-LYTE Kinase Assay Kits
Description: All reactions were performed in duplicate.

CLK3 = CLK3 (Homo sapiens, UniProt P49761); experiment: CLK3 kinase activity assay (Z-lyte, Ser/Thr 18 peptide)
[7] = tested on: pancreatic cancer (8 cell lines); experiment: CellTiter-Glo Viability Assay, pancreatic cancer; type: cell-based; conditions: Homo sapiens, inhibition of cancer cell proliferation

T1 sequence (P49760 whole entry): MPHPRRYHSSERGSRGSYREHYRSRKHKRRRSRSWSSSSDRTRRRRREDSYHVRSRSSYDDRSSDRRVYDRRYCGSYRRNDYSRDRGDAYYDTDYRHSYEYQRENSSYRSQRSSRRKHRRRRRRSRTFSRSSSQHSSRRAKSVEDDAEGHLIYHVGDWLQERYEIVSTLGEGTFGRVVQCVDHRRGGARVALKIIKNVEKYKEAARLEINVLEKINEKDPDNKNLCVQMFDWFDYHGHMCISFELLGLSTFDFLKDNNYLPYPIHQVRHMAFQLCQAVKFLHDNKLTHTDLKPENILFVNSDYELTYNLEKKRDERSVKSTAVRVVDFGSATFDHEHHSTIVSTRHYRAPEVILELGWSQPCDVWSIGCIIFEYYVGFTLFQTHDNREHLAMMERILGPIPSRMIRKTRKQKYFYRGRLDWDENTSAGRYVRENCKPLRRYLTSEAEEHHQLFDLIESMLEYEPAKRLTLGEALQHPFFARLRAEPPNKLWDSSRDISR
Chain of CLK3 (P49761 whole entry): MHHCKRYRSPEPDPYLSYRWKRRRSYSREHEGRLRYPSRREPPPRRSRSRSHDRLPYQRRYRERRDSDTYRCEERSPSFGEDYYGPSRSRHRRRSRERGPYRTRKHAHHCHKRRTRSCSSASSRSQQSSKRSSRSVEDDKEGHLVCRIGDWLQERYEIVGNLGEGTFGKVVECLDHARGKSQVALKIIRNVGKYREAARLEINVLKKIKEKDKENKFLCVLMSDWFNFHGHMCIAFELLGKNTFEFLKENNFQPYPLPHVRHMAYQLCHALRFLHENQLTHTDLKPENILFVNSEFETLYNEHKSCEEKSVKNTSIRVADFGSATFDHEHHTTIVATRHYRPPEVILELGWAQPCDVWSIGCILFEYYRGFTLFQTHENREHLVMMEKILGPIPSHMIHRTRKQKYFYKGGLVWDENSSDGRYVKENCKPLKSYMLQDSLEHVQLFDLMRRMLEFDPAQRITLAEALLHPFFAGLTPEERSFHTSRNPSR

EC50 ([1]; DU-145, read-out: Prostate cancer EC50 Du-145): 654 nM | EC50 ([1]; PC-3, PC3 cell line, inhibition of cancer cell proliferation, read-out: Prostate cancer EC50 PC3): 860 nM | EC50 ([1]; 22Rv1 cell line, inhibition of cancer cell proliferation, read-out: Prostate cancer EC50 22Rv1): 348 nM | EC50 ([1]; LNCap clone FGC cell line, inhibition of cancer cell proliferation, read-out: Prostate cancer EC50 LNCap clone FGC): 4690 nM | EC50 ([1]; VCaP (Sigma) cell line, inhibition of cancer cell proliferation, read-out: Prostate cancer EC50 VCaP (Sigma)): 756 nM | EC50 ([2]; SNU-398, SNU398 cell line, read-out: Liver cancer, EC50 SNU398): 71 nM | EC50 ([2]; HEPG2 cell line, read-out: Liver cancer, EC50 HEPG2): 3290 nM | EC50 ([2]; PLC/PRF/5 cell line, read-out: Liver cancer, EC50 PLC/PRF/5): 3350 nM | EC50 ([3]; DND41, DND-41 cell line, read-out: Haematopoietic & Lymphoid tumors, EC50 (μM) DND-41): 0.221 µM | EC50 ([3]; MV4-11, MV-4-11 cell line, read-out: Haematopoietic & Lymphoid tumors, EC50 (μM) MV-4-11): 0.032 µM | EC50 ([3]; Rec1, REC-1 cell line, read-out: Haematopoietic & Lymphoid tumors, EC50 (μM) REC-1): 0.149 µM | EC50 ([3]; SU-DHL-4, SUDHL4 cell line, read-out: Haematopoietic & Lymphoid tumors, EC50 (μM) SUDHL4): 0.241 µM | EC50 ([3]; HL-60 cell line, read-out: Haematopoietic & Lymphoid tumors, EC50 (μM) HL-60): 1.54 µM | EC50 ([3]; JM1 cell line, read-out: Haematopoietic & Lymphoid tumors, EC50 (μM) JM1): 0.062 µM | EC50 ([3]; JURKAT, Clone E6-1 cell line, read-out: Haematopoietic & Lymphoid tumors, EC50 (μM) JURKAT, Clone E6-1): 0.298 µM | EC50 ([3]; JeKo-1 cell line, read-out: Haematopoietic & Lymphoid tumors, EC50 (μM) JeKo-1): 0.139 µM | EC50 ([3]; KASUMI-1 cell line, read-out: Haematopoietic & Lymphoid tumors, EC50 (μM) KASUMI-1): 0.11 µM | EC50 ([3]; Loucy cell line, read-out: Haematopoietic & Lymphoid tumors, EC50 (μM) Loucy): 0.28 µM | EC50 ([3]; MOLT-4 cell line, read-out: Haematopoietic & Lymphoid tumors, EC50 (μM) MOLT-4): 0.381 µM | EC50 ([3]; TF-1 cell line, read-out: Haematopoietic & Lymphoid tumors, EC50 (μM) TF-1): 0.789 µM | EC50 ([3]; TOLEDO cell line, read-out: Haematopoietic & Lymphoid tumors, EC50 (μM) TOLEDO): 0.108 µM | EC50 ([4]; PA-1, PA1 cell line, read-out: Ovarian cancer, EC50 (μM) PA1): 0.768 µM | EC50 ([4]; TOV112D, TOV-112D cell line, read-out: Ovarian cancer, EC50 (μM) TOV-112D): 0.421 µM | EC50 ([4]; OV-90 cell line, read-out: Ovarian cancer, EC50 (μM) OV-90): 2.86 µM | EC50 ([4]; OVCAR-3 cell line, read-out: Ovarian cancer, EC50 (μM) OVCAR-3): 0.291 µM | EC50 (ZR-75-1): 2920 nM | EC50 (BT-549): 731 nM | EC50 (T47D): 4960 nM | EC50 (MCF7): 3700 nM | EC50 (MDA-MB-231-Luc): 2700 nM | EC50 (CAMA1): 1340 nM | EC50 (DU4475): 247 nM | EC50 (HCC1599): 38 nM | EC50 ([5]; A-427, A427 cell line, read-out: Lung cancer, EC50 (μM) A427): 0.502 µM | EC50 ([5]; HCC78, HCC-78 cell line, read-out: Lung cancer, EC50 (μM) HCC-78): 1.44 µM | EC50 ([5]; NCI-H460 cell line, read-out: Lung cancer, EC50 (μM) NCI-H460): 0.919 µM | EC50 ([5]; NCI-H522 cell line, read-out: Lung cancer, EC50 (μM) NCI-H522): 0.097 µM | EC50 ([6]; HCT-116, HCT116 cell line, read-out: Colorectal cancer, EC50 (μM) HCT116): 0.318 µM | EC50 ([6]; HT-29, HT29 cell line, read-out: Colorectal cancer, EC50 (μM) HT29): 1.2 µM | EC50 ([6]; SW-620, SW620 cell line, read-out: Colorectal cancer, EC50 (μM) SW620): 0.156 µM | EC50 ([6]; DLD-1 cell line, read-out: Colorectal cancer, EC50 (μM) DLD-1): 0.264 µM | EC50 ([6]; SW48 cell line, read-out: Colorectal cancer, EC50 (μM) SW48): 0.147 µM | EC50 ([6]; SW480 cell line, read-out: Colorectal cancer, EC50 (μM) SW480): 0.644 µM | EC50 (CLK2): 2.4 nM | EC50 (CLK3): 10.3 nM | EC50 ([7]; BXPC-3, BxPC3 cell line, read-out: Pancreatic cancer, EC50 BxPC3): 660 nM | EC50 ([7]; CAPAN-1, Capan1 cell line, read-out: Pancreatic cancer, EC50 Capan1): 583 nM | EC50 ([7]; Capan-2, Capan2 cell line, read-out: Pancreatic cancer, EC50 Capan2): 1120 nM | EC50 ([7]; MIA PaCa-2 cell line, read-out: Pancreatic cancer, EC50 MIA PaCa-2): 267 nM | EC50 ([7]; PANC 05.04 cell line, read-out: Pancreatic cancer, EC50 PANC 05.04): 3470 nM | EC50 ([7]; PANC-1 cell line, read-out: Pancreatic cancer, EC50 PANC-1): 1900 nM | EC50 ([7]; UPAFII cell line, read-out: Pancreatic cancer, EC50 UPAFII): 511 nM
SMILES: CN1CCN(c2cc(Nc3ncc4c(-c5ccc6ncccc6c5)c[nH]c4n3)ccn2)CC1 [Compound 67]
EC50 (all 50 cell lines): 1070 nM
